From patent publication US12285421B2, “Uses of a 5-HT4 receptor agonist” (SUVEN LIFE SCIENCES LIMITED, priority 2018, dated 2025)

Legend:
[1] = system: ovariectomized female Wistar rats; assay: Object recognition task, in vivo model for dementia due to menopause; parameters: species or system rat; conditions: ~12 months after surgery, dosed 60 min prior to trial-1, FIG. 1
Method: Bilateral ovariectomy surgery was carried out in 7-8 weeks old female rats. Briefly, animals were anesthetized using Avertin (2,2,2-tri bromo ethanol) at 150 mg/kg, i.p. and were lay down on the surgery table. A midline incision was given on the dorsal region below the rib cage and 1 cm lateral to the either side of midline, a small incision was given on fascia to locate the adipose fat supporting the ovaries. By slowly pulling out the fat tissue, the ovary was identified and excised following the uterine horn ligation with silk sutures. Fascia was also covered with sutures and the similar procedure was repeated on the other side. Superficial skin layers were sutured and gentamicin (15 mg/kg, s.c.) was given as antibiotic and meloxicam (1 mg/kg, i.m.) as analgesic with povidone iodine applied on superficial skin layers at last. Episodic memory which is a memory of autobiographical events contextual in relation to time, place etc. was assessed ˜12 months after the surgery using object recognition task. On experiment day 1, rats were transferred to experimental room for acclimatization. On experiment day 2, all groups of animals were habituated to their respective test arenas for a period of 30 min prior to trial-1. […] Discriminative index (b−a3/b+a3) was calculated and compared among the groups.

Male Wistar rats [2] = assay: Dominant Submissive Model (DSM) for depression; assay type: in vivo, rat; conditions: 3 mg/kg, p.o., submissive rats treated, significance in 5th week (p<0.05), FIG. 4
Method: A total of 220 male Wistar rats (110 pairs) of ˜150-200 g weight were selected. The animals were randomized on the basis of body weight and matched for body weight, pair wise. The pairs were habituated to the testing apparatus and milk for a period of 5 min per day for 5 days (first week). The animals were housed such that these pairs met only during the trial time. Each pair was given equal access to milk containing 9% sucrose in a beaker (10 mL), which was placed in an opening on the floor at the midpoint of the tunnel. During the second week, time spent in drinking the milk by a pair of rats was recorded and scored for a period of 5 min. Once the 5 min period was over, the rat pair was returned to their respective home cages.
Pairs, which met the above criteria were selected and randomized based on the dominance levels. Both the dominant and submissive animals of the control group were treated with vehicle (sterile water, 4 mL/kg, p.o.). […] During the test period (three weeks), time spent in drinking the milk was recorded for each animal of a pair for a period of 5 min. […] Dominance level (the average of difference in daily drinking score between the dominant and submissive partners during the testing period) was analyzed using repeated measure one way ANOVA followed by Tukey's test against its dominance level during 2nd week (FIG. 4).

serotonin = assay: In vivo brain microdialysis, serotonin modulation in ventral hippocampus; conditions: Compound-1 3 mg/kg, p.o. alone, rat ventral hippocampus
Excerpt: Incorrect probe placement was considered as criteria to reject the data from animal.

Male Wistar rats [3] = assay: Object recognition task (NORT), MK-801 induced cognitive impairment; conditions: 0.3 and 1 mg/kg, p.o., FIG. 3
Method: During the familiarization phase, (T1), the rats were placed individually in the arena for 3 minutes, in which two identical objects (a1 and a2) were positioned 10 cm from the wall. Ninety minutes after T1, choice phase was performed. Rats were placed in the same arena as they were placed in T1 trial. During the choice phase (T2) rats were allowed to explore the arena for 3 minutes in presence of a copy of familiar object (a3) and one novel object (b).

`COCCCN1CCC(c2nnc(-c3nn(C(C)C)c4ccccc34)o2)CC1.O=C(O)C(=O)O` [Compound-1, Isopropyl-3-{5-[1-(3-methoxypropyl)piperidin-4-yl]-[1,3,4]oxadiazol-2-yl}-1H-indazole oxalate] was tested, and the “object recognition memory deficits” value [1] was “reversed”, the dominance levels (Male Wistar rats [2]) was “decreased” and the “increase in hippocampal serotonin levels above pre-dose levels” value (serotonin) was 22%. The “MK-801 induced memory deficit” value (Male Wistar rats [3]) was “reversed”.
